Source: the RepoRT retention time repository (doi:10.1039/c4mb00346b)

Test: HILIC, Merck SeQuant ZIC-pHILIC, 150 × 2.1 mm, 5 µm, 0.1 mL/min, estimated dead time 3.3 min; A: acetonitrile; B: water + 10 mM ammonium carbonate; gradient (min/%B) 0/20 30/80
Settings: stereoisomer not certain

LC retention time [min]	Structure (SMILES)
9.2	OCC1OCC(O)C(O)C1O (stereo not drawn) [1,5-Anhydroglucitol]
11.1	Cn1cnc2c(ncn2C2OC(CO)C(O)C2O)c1=N (stereo not drawn) [1-Methyl-adenosine]
7.1	Cn1c(N)nc2c(ncn2C2OC(CO)C(O)C2O)c1=O (stereo not drawn) [1-Methyl-guanosine]
12.2	NC(CCCC(=O)O)C(=O)O (stereo not drawn) [2-Aminoadipate]
12.9	O=C(O)CCC(=O)C(=O)O [2-Oxoglutarate]
7.1	Nc1ncnc2c1ncn2C1OC2COP(=O)(O)OC2C1O (stereo not drawn) [3',5'-cAMP]
7.2	Nc1ccc(C(=O)O)cc1 [4-Aminobenzoate]
15	O=C(O)C(O)C(O)C(O)C(O)COP(=O)(O)O (stereo not drawn) [6-Phosphogluconate]
12.4	Nc1ncnc2c1ncn2C1OC(COP(=O)(O)OP(=O)(O)O)C(O)C1O (stereo not drawn) [ADP]
12.7	NC(=O)c1ncn(C2OC(COP(=O)(O)O)C(O)C2O)c1N (stereo not drawn) [AICAR]
11.5	Nc1ncnc2c1ncn2C1OC(COP(=O)(O)O)C(O)C1O (stereo not drawn) [AMP]
13.8	Nc1ncnc2c1ncn2C1OC(COP(=O)(O)OP(=O)(O)OP(=O)(O)O)C(O)C1O (stereo not drawn) [ATP]
10.5	CC(=O)SCCNC(=O)CCNC(=O)C(O)C(C)(C)COP(=O)(O)OP(=O)(O)OCC1OC(n2cnc3c(N)ncnc32)C(O)C1OP(=O)(O)O (stereo not drawn) [Acetyl-CoA]
8.5	CC(=O)OC(CC(=O)[O-])C[N+](C)(C)C (stereo not drawn) [Acetyl-carnitine]
6.6	Nc1ncnc2nc[nH]c12 [Adenine]
6.2	Nc1ncnc2c1ncn2C1OC(CO)C(O)C1O (stereo not drawn) [Adenosine]
24.8	NC(N)=NCCCC(N)C(=O)O (stereo not drawn) [Arginine]
14.2	NC(=NCCCC(N)C(=O)O)NC(CC(=O)O)C(=O)O (stereo not drawn) [Arginino-succinate]
12.4	NC(=O)CC(N)C(=O)O (stereo not drawn) [Asparagine]

LC retention time [min]	Structure (SMILES)
12.5	NC(CC(=O)O)C(=O)O (stereo not drawn) [Aspartate]
8.6	C[N+](C)(C)CC(=O)[O-] [Betaine]
6.2	O=C(O)CCCCC1SCC2NC(=O)NC21 (stereo not drawn) [Biotin]
10.9	C[N+](C)(C)CCCC(=O)O [Butyro-betaine]
6.2	CCCC(=O)OC(CC(=O)[O-])C[N+](C)(C)C (stereo not drawn) [Butyryl-carnitine]
13	C[N+](C)(C)CCOP(=O)(O)OP(=O)([O-])OCC1OC(n2ccc(N)nc2=O)C(O)C1O (stereo not drawn) [CDP-choline]
14.7	Nc1ccn(C2OC(COP(=O)(O)OP(=O)(O)O)C(O)C2O)c(=O)n1 (stereo not drawn) [CDP]
13.2	Nc1ccn(C2OC(COP(=O)(O)O)C(O)C2O)c(=O)n1 (stereo not drawn) [CMP]
15.5	Nc1ccn(C2OC(COP(=O)(O)OP(=O)(O)OP(=O)(O)O)C(O)C2O)c(=O)n1 (stereo not drawn) [CTP]
10.9	C[N+](C)(C)CC(O)CC(=O)[O-] (stereo not drawn) [Carnitine]
12.6	CC(O)(CC(=O)O)C(=O)O (stereo not drawn) [Citramalate]
15.5	O=C(O)CC(O)(CC(=O)O)C(=O)O [Citrate]
13	NC(=O)NCCCC(N)C(=O)O (stereo not drawn) [Citrulline]
11.7	CC(C)(COP(=O)(O)OP(=O)(O)OCC1OC(n2cnc3c(N)ncnc32)C(O)C1OP(=O)(O)O)C(O)C(=O)NCCC(=O)NCCS (stereo not drawn) [CoA]
12.1	CN(CC(=O)O)C(=N)N [Creatine]
6.9	CN1CC(=O)NC1=N [Creatinine]
9.1	Nc1ccn(C2OC(CO)C(O)C2O)c(=O)n1 (stereo not drawn) [Cytidine]
4.2	CCCCCCCCCC(=O)OC(CC(=O)[O-])C[N+](C)(C)C (stereo not drawn) [Decanoyl-carnitine]
20	CN(C)C(N)=NCCCC(N)C(=O)O (stereo not drawn) [Dimethyl-arginine]
